*1 amine or outer side, *2 acyl side, *3 side chain or, on linkers, in order; H or OH if unused. Where a SMILES comes first, the peptide text is derived from it. Bridges are numbered along the chain shown (N, C = ends). [ ]: non-standard residue; d: D form. The star is where a group is joined. ξ: configuration not given here. Phe(4-COOH) = N[C@@H](Cc1ccc(C(=O)O)cc1)C(=O)O; Bip = N[C@@H](Cc1ccc(-c2ccccc2)cc1)C(=O)O; γGlu = O=C(O)[C@H](CCC(=O)[*:2])N[*:1]; aIle = CC[C@@H](C)[C@H](N)C(=O)O; 4Pal = N[C@@H](Cc1ccncc1)C(=O)O; Cha = N[C@@H](CC1CCCCC1)C(=O)O; Ile(3ξ) = CCC(C)[C@H](N)C(=O)O; Thr(3ξ) = CC(O)[C@H](N)C(=O)O; dOrn = NCCC[C@@H](N)C(=O)O; Carboxymethyl = O=C(O)C*; NMeA = CN[C@@H](C)C(=O)O; dDap = NC[C@@H](N)C(=O)O; Aun = NCCCCCCCCCCC(=O)O; Dab = NCC[C@H](N)C(=O)O; AEEA = NCCOCCOCC(=O)O

T1 sequence (Q15116 25-288): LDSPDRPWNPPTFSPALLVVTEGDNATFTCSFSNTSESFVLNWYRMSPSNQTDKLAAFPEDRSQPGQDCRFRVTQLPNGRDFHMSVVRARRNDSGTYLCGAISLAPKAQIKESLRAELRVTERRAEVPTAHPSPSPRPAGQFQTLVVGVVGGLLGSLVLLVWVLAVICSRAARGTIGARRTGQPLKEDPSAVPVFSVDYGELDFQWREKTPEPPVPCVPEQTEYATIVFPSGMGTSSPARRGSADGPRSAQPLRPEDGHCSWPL

The assay concerns the target T1, PD-1/PD-L1 interaction (PE-labeled human PD-L1-Ig binding to Jurkat cell line over-expressing human PD-1) (Homo sapiens, UniProt Q15116).
T1 construct: expressed in transfected cells; host or cells: Jurkat
The assay can be described thus: Jurkat-PD-1 Cell Binding High-Content Screening Assay (CBA). Particulars: Jurkat-hPD-1 cells, PE-labeled PD-L1-Ig 20 nM final; read-out: Jurkat HPD1 PDL1 IC50. The gist of the method: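 Jurkat-hPD-1 cells (8×10^3/well) in DMEM with 10% fetal calf serum were preincubated with compound for 2 h at 37 °C. PE-labeled PD-L1-Ig was then added at 20 nM final for 1 h. Cells were fixed in paraformaldehyde with Hoechst 33342, washed and imaged by high-content imaging.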
With `CCC(C)[C@@H]1NC(=O)[C@H](Cc2ccc(-c3ccccc3)cc2)NC(=O)[C@H](C(C)C)NC(=O)[C@H](Cc2c[nH]c3ccccc23)NC(=O)[C@H](CC(=O)O)NC(=O)[C@H](Cc2ccc(OCC(=O)O)cc2)NC(=O)[C@H](C(C)O)NC(=O)CSC[C@@H](C(=O)NCCOCCOCC(=O)N[C@@H](CCCCN)C(=O)NCCCCCCCCCCC(=O)O)NC(=O)[C@H](CO)NC(=O)[C@H](C(C)C)NC(=O)[C@H](CC2CCCCC2)NC(=O)[C@H](CCN)NC(=O)[C@@H](CC(C)C)NC(=O)[C@H](C)N(C)C1=O` (stereo partly drawn) [Example 2030] ({CH2CO}-[Thr(3ξ)]Y(Carboxymethyl)DWV[Bip][Ile(3ξ)][NMeA][dL][Dab][Cha]VSC[AEEA]K[Aun]-OH; thioether N-14), the IC50 turned out to be 13.2 nM. The same measure for `CCC(C)[C@@H]1NC(=O)[C@H](Cc2ccc(-c3ccccc3)cc2)NC(=O)[C@H](C(C)C)NC(=O)[C@H](Cc2c[nH]c3ccccc23)NC(=O)[C@H](CC(=O)O)NC(=O)[C@H](Cc2ccc(OCC(=O)O)cc2)NC(=O)[C@H](C(C)O)NC(=O)CSC[C@@H](C(=O)N[C@H](CC(N)=O)C(=O)NCCOCCOCC(=O)NCCCCCCCCCCC(=O)O)NC(=O)[C@H](CO)NC(=O)[C@H](C(C)C)NC(=O)[C@H](CC2CCCCC2)NC(=O)[C@H](CCN)NC(=O)[C@@H](CC(C)C)NC(=O)[C@H](C)N(C)C1=O` (stereo partly drawn) [Example 2031] ({CH2CO}-[Thr(3ξ)]Y(Carboxymethyl)DWV[Bip][Ile(3ξ)][NMeA][dL][Dab][Cha]VSC[dN][AEEA][Aun]-OH; thioether N-14): 9.4 nM; for `CCC(C)[C@@H]1NC(=O)[C@H](Cc2ccc(-c3ccccc3)cc2)NC(=O)[C@H](C(C)C)NC(=O)[C@H](Cc2c[nH]c3ccccc23)NC(=O)[C@H](CC(=O)O)NC(=O)[C@H](Cc2ccc(OCC(=O)O)cc2)NC(=O)[C@H](Cc2c[nH]cn2)NC(=O)CSC[C@@H](C(=O)NCCOCCOCC(=O)N[C@@H](CCC(=O)NCCOCCOCC(=O)N[C@@H](CCCCN)C(=O)NCCCCCCCCCCC(=O)O)C(=O)O)NC(=O)[C@H](CO)NC(=O)[C@H](C(C)C)NC(=O)[C@H](CC2CCCCC2)NC(=O)[C@H](CCN)NC(=O)[C@@H](CC(C)C)NC(=O)[C@H](C)N(C)C1=O` (stereo partly drawn) [Example 2032] ({CH2CO}-HY(Carboxymethyl)DWV[Bip][Ile(3ξ)][NMeA][dL][Dab][Cha]VSC[AEEA][γGlu][AEEA]K[Aun]-OH; thioether N-14): 10.4 nM; for `CCC(C)[C@@H]1NC(=O)[C@H](Cc2ccc(-c3ccccc3)cc2)NC(=O)[C@H](C(C)C)NC(=O)[C@H](Cc2c[nH]c3ccccc23)NC(=O)[C@H](CC(=O)O)NC(=O)[C@H](Cc2ccc(OCC(=O)O)cc2)NC(=O)[C@H](Cc2ccncc2)NC(=O)CSC[C@@H](C(=O)NCCOCCOCC(=O)N[C@@H](CCCCN)C(=O)NCCCCCCCCCCC(=O)O)NC(=O)[C@H](CO)NC(=O)[C@H](C(C)C)NC(=O)[C@H](CC2CCCCC2)NC(=O)[C@H](CCN)NC(=O)[C@@H](CC(C)C)NC(=O)[C@H](C)N(C)C1=O` (stereo partly drawn) [Example 2033] ({CH2CO}-[4Pal]Y(Carboxymethyl)DWV[Bip][Ile(3ξ)][NMeA][dL][Dab][Cha]VSC[AEEA]K[Aun]-OH; thioether N-14): 19.2 nM. The same measure for `CC[C@@H](C)[C@@H]1NC(=O)[C@H](Cc2ccc(-c3ccccc3)cc2)NC(=O)[C@H](CC(C)C)NC(=O)[C@H](Cc2c[nH]c3ccccc23)NC(=O)[C@H](CC(=O)O)NC(=O)[C@H](Cc2ccc(C(=O)O)cc2)NC(=O)[C@H](Cc2ccc(OCC(=O)O)cc2)NC(=O)CSC[C@@H](C(=O)NCCOCCOCC(=O)N[C@H](CCCN)C(=O)NCCCCCCCCCCC(=O)O)NC(=O)[C@H](CO)NC(=O)[C@H](C(C)C)NC(=O)[C@H](CC2CCCCC2)NC(=O)[C@H](CCN)NC(=O)[C@@H](CC(C)C)NC(=O)[C@H](C)N(C)C1=O` [Example 2034] ({CH2CO}-Y(Carboxymethyl)[Phe(4-COOH)]DWL[Bip][aIle][NMeA][dL][Dab][Cha]VSC[AEEA][dOrn][Aun]-OH; thioether N-14): 16.9 nM; for `CC(C)C[C@@H]1NC(=O)[C@H](Cc2c[nH]c3ccccc23)NC(=O)[C@H](CC(=O)O)NC(=O)[C@H](Cc2ccc(O)cc2)NC(=O)[C@H](Cc2ccccc2)NC(=O)CSC[C@@H](C(=O)N[C@@H](C)C(=O)N[C@H](CCCCN)C(=O)NCCCCCCCCCCC(=O)O)NC(=O)[C@H](CO)NC(=O)[C@H](C(C)C)NC(=O)[C@H](CC(C)C)NC(=O)[C@H](CCN)NC(=O)[C@@H](CC(C)C)NC(=O)[C@H](C)N(C)C(=O)[C@H](C(C)C)NC(=O)[C@H](Cc2ccc(-c3ccccc3)cc2)NC1=O` [Example 2035] ({CH2CO}-FYDWL[Bip]V[NMeA][dL][Dab]LVSCA[dK][Aun]-OH; thioether N-14): 21.9 nM.

As to `CC[C@@H](C)[C@@H]1NC(=O)[C@H](Cc2ccc(-c3ccccc3)cc2)NC(=O)[C@H](C(C)C)NC(=O)[C@H](Cc2c[nH]c3ccccc23)NC(=O)[C@H](CC(=O)O)NC(=O)[C@H](Cc2ccc(O)cc2)NC(=O)[C@H](Cc2ccncc2)NC(=O)CSC[C@@H](C(=O)N[C@@H](CCN)C(=O)NCCCCCCCCCCC(=O)O)NC(=O)[C@H](C(C)O)NC(=O)[C@H](C(C)C)NC(=O)[C@H](CC2CCCCC2)NC(=O)[C@H](CCN)NC(=O)[C@@H](CC(C)C)NC(=O)[C@H](C)N(C)C1=O` (stereo partly drawn) [Example 2036] ({CH2CO}-[4Pal]YDWV[Bip][aIle][NMeA][dL][Dab][Cha]V[Thr(3ξ)]C[Dab][Aun]-OH; thioether N-14), the IC50 is 43.9 nM. In the case of `CC(C)C[C@@H]1NC(=O)[C@H](Cc2c[nH]c3ccccc23)NC(=O)[C@H](CC(=O)O)NC(=O)[C@H](Cc2ccc(OCC(=O)O)cc2)NC(=O)[C@H](Cc2ccccc2)NC(=O)CSC[C@@H](C(=O)N[C@H](CN)C(=O)NCCOCCOCC(=O)NCCCCCCCCCCC(=O)O)NC(=O)[C@H](Cc2c[nH]cn2)NC(=O)[C@H](C(C)C)NC(=O)[C@H](CC(C)C)NC(=O)[C@H](CCN)NC(=O)[C@@H](CC(C)C)NC(=O)[C@H](C)N(C)C(=O)[C@H](C(C)C)NC(=O)[C@H](Cc2ccc(-c3ccccc3)cc2)NC1=O` [Example 2037] ({CH2CO}-FY(Carboxymethyl)DWL[Bip]V[NMeA][dL][Dab]LVHC[dDap][AEEA][Aun]-OH; thioether N-14), the IC50 is 29 nM. `CCC(C)[C@@H]1NC(=O)[C@H](Cc2ccc(-c3ccccc3)cc2)NC(=O)[C@H](CC(C)C)NC(=O)[C@H](Cc2c[nH]c3ccccc23)NC(=O)[C@H](CC(=O)O)NC(=O)[C@H](Cc2ccc(OCC(=O)O)cc2)NC(=O)[C@H](Cc2ccc(OCC(=O)O)cc2)NC(=O)CSC[C@@H](C(=O)N[C@@H](CCN)C(=O)NCCOCCOCC(=O)NCCCCCCCCCCC(=O)O)NC(=O)[C@H](CO)NC(=O)[C@H](C(C)C)NC(=O)[C@H](CC(C)C)NC(=O)[C@H](CC(N)=O)NC(=O)[C@@H](CC(C)C)NC(=O)[C@H](C)N(C)C1=O` (stereo partly drawn) [Example 2038] ({CH2CO}-Y(Carboxymethyl)Y(Carboxymethyl)DWL[Bip][Ile(3ξ)][NMeA][dL]NLVSC[Dab][AEEA][Aun]-OH; thioether N-14): the IC50 was found to be 29.6 nM.

For orientation: IC50 means the point on the concentration scale where inhibition reaches its midpoint.

The values are drawn from patent publication US20260070945A1, “MACROCYCLIC IMMUNOMODULATORS” (Bristol-Myers Squibb Company, priority 2022, published 2026).
